Assay results taken from patent publication US10143746B2, “Immunomodulators” (BRISTOL-MYERS SQUIBB COMPANY, priority 2016, dated 2018).
Where a SMILES comes first, the peptide text is derived from it. Bridges are numbered along the chain shown (N, C = ends). [ ]: non-standard residue; d: D form. Hyp = O=C(O)[C@@H]1C[C@@H](O)CN1; NMeNle = CCCC[C@H](NC)C(=O)O; NMeA = CN[C@@H](C)C(=O)O; Orn = NCCC[C@H](N)C(=O)O; Dab = NCC[C@H](N)C(=O)O; Sar = CNCC(=O)O

These compounds were tested against PD-1-Ig binding to PD-L1-TVMV-His (PD-L1-His) (Homo sapiens (Human), UniProt Q9NZQ7) (assay: PD-1/PD-L1 Homogenous Time-Resolved Fluorescence (HTRF) binding assay (PD-1-Ig/PD-L1-His)). Details: PD-1-Ig (20 nM)/PD-L1-His (10 nM); numeric values.
Description: Methods for Testing the Ability of Macrocyclic Compounds to Compete for the Binding of PD-1 to PD-L1 Using Homogenous Time-Resolved Fluorescence (HTRF) Binding Assays
The ability of the macrocyclic compounds of the present disclosure to bind to PD-L1 was investigated using a PD-1/PD-L1 Homogenous Time-Resolved Fluorescence (HTRF) binding assay.
Homogenous Time-Resolved Fluorescence (HTRF) Assays of Binding of Soluble PD-1 to Soluble PD-L1. Soluble PD-1 and soluble PD-L1 refers to proteins with carboxyl-end truncations that remove the transmembrane-spanning regions and are fused to heterologous sequences, specifically the Fc portion of the human immunoglobulin G sequence (Ig) or the hexahistidine epitope tag (His). All binding studies were performed in an HTRF assay buffer consisting of dPBS supplemented with 0.1% (w/v) bovine serum albumin and 0.05% (v/v) Tween-20. For the PD-1-Ig/PD-L1-His binding assay, inhibitors were pre-incubated with PD-L1-His (10 nM final) for 15 m in 4 μl of assay buffer, followed by addition of PD-1-Ig (20 nM final) in 1 μl of assay buffer and further incubation for 15 m. PD-L1 fusion proteins from either human, cynomologous macaques, mouse, or other species were used. HTRF detection was achieved using europium crypate-labeled anti-Ig monoclonal antibody (1 nM final) and allophycocyanin (APC) labeled anti-His monoclonal antibody (20 nM final). Antibodies were diluted in HTRF detection buffer and 5 μl was dispensed on top of binding reaction. […] Additional binding assays were established between PD-1-Ig/PD-L2-His (20 and 5 nM, respectively), CD80-His/PD-L1-Ig (100 and 10 nM, respectively) and CD80-His/CTLA4-Ig (10 and 5 nM, respectively).
Recombinant Proteins. […] Human PD-L2-His (Sino Biologicals), CD80-His (Sino Biologicals), CTLA4-Ig (RnD Systems) were all obtained through commercial sources.

Chain of PD-1-Ig binding to PD-L1-TVMV-His (PD-L1-His) (Q9NZQ7 other isoform, or with tags, fused parts or gaps): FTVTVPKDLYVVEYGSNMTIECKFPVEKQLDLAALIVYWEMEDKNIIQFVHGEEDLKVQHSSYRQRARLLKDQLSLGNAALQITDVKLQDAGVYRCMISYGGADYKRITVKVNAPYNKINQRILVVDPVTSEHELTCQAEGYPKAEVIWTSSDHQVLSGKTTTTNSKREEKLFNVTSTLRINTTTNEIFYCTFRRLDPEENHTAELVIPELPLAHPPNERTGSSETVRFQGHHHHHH

| Compound | IC50 |
| --- | --- |
| CCCC[C@H]1C(=O)N(C)[C@@H](CCCC)C(=O)N[C@@H](C)C(=O)N[C@H](C(=O)NCC(N)=O)CSCC(=O)N[C@@H](Cc2ccc(O)cc2)C(=O)N(C)[C@@H](C)C(=O)N[C@H]2CCCNC(=O)CC[C@@H](NC(=O)[C@H](Cc3cn(C(=O)C(F)(F)F)cn3)NC(=O)[C@@H]3CCCC3C2=O)C(=O)N2C[C@H](O)C[C@H]2C(=O)N[C@@H](Cc2c[nH]c3ccccc23)C(=O)N[C@@H](CO)C(=O)N[C@@H](Cc2c[nH]c3ccccc23)C(=O)N1C (stereo partly drawn) [Example 1403] | 7 nM |

Same assay, conditions: PD-1-Ig (20 nM)/PD-L1-His (10 nM); range classes

| Compound | IC50 |
| --- | --- |
| CCCC[C@H]1C(=O)N(C)[C@@H](CCCC)C(=O)N[C@@H](CCCNC(=N)N)C(=O)N[C@H](C(=O)NCC(N)=O)CSCC(=O)N[C@@H](Cc2ccc(O)cc2)C(=O)N(C)[C@@H](C)C(=O)N[C@H]2CCNC(=O)CC[C@H](NC(=O)[C@H](C)NC(=O)[C@@H]3CCCN3C2=O)C(=O)N2C[C@H](O)C[C@H]2C(=O)N[C@@H](Cc2c[nH]c3ccccc23)C(=O)N[C@@H](CO)C(=O)N[C@@H](Cc2c[nH]c3ccccc23)C(=O)N1C [Example 1400] ({CH2CO}-Y[NMeA][Dab]PAE[Hyp]WSW[NMeNle][NMeNle]RCG-NH2; lactam 3-6; thioether N-14) | 10 to 99 nM |
| CCCC[C@H]1C(=O)N(C)[C@@H](CCCC)C(=O)N[C@@H](C)C(=O)N[C@H]2CSCC(=O)N[C@@H](Cc3ccc(O)cc3)C(=O)N(C)[C@@H](C)C(=O)N[C@@H](CC(N)=O)C(=O)N3CCC[C@H]3C(=O)N[C@@H](Cc3cn(C(=O)C(F)(F)F)cn3)C(=O)N[C@@H](CC(C)C)C(=O)N[C@@H](CCCNC(=O)CNC2=O)C(=O)N[C@@H](Cc2c[nH]c3ccccc23)C(=O)N[C@@H](CO)C(=O)N[C@@H](Cc2c[nH]c3ccccc23)C(=O)N1C [Example 1401] | 10 to 99 nM |
| CCCC[C@H]1C(=O)N(C)[C@@H](CCCC)C(=O)N[C@@H](CCCNC(=N)N)C(=O)N[C@H](C(=O)NCC(N)=O)CSCC(=O)N[C@@H](Cc2ccc(O)cc2)C(=O)N(C)[C@@H](C)C(=O)N[C@H]2CCCNC(=O)CC[C@H](NC(=O)[C@H](C)NC(=O)[C@@H]3CCCN3C2=O)C(=O)N2C[C@H](O)C[C@H]2C(=O)N[C@@H](Cc2c[nH]c3ccccc23)C(=O)N[C@@H](CO)C(=O)N[C@@H](Cc2c[nH]c3ccccc23)C(=O)N1C [Example 1402] ({CH2CO}-Y[NMeA][Orn]PAE[Hyp]WSW[NMeNle][NMeNle]RCG-NH2; lactam 3-6; thioether N-14) | 10 to 99 nM |
| CCCC[C@H]1C(=O)N(C)[C@@H](CCCC)C(=O)N[C@@H](C)C(=O)N[C@H](C(=O)NCC(N)=O)CSCC(=O)N[C@@H](Cc2ccc(O)cc2)C(=O)N(C)[C@@H](C)C(=O)N[C@H]2CC(=O)NCC[C@H](NC(=O)[C@H](Cc3cnc[nH]3)NC(=O)[C@@H]3CCCN3C2=O)C(=O)N2C[C@H](O)C[C@H]2C(=O)N[C@@H](Cc2c[nH]c3ccccc23)C(=O)N[C@@H](CO)C(=O)N[C@@H](Cc2c[nH]c3ccccc23)C(=O)N1C [Example 1500] ({CH2CO}-Y[NMeA]DPH[Dab][Hyp]WSW[NMeNle][NMeNle]ACG-NH2; lactam 3-6; thioether N-14) | 10 to 99 nM |
| CCCC[C@H]1C(=O)N(C)[C@@H](CCCC)C(=O)N[C@@H](C)C(=O)N[C@H](C(=O)NCC(N)=O)CSCC(=O)N[C@@H](Cc2ccc(O)cc2)C(=O)N(C)[C@@H](C)C(=O)N[C@H]2CCC(=O)NCC[C@H](NC(=O)[C@H](Cc3cnc[nH]3)NC(=O)[C@@H]3CCCN3C2=O)C(=O)N2C[C@H](O)C[C@H]2C(=O)N[C@@H](Cc2c[nH]c3ccccc23)C(=O)N[C@@H](CO)C(=O)N[C@@H](Cc2c[nH]c3ccccc23)C(=O)N1C [Example 1501] ({CH2CO}-Y[NMeA]EPH[Dab][Hyp]WSW[NMeNle][NMeNle]ACG-NH2; lactam 3-6; thioether N-14) | 10 to 99 nM |
| CCCC[C@H]1C(=O)N(C)[C@@H](CCCC)C(=O)N[C@@H](C)C(=O)N[C@H](C(=O)NCC(N)=O)CSCC(=O)N[C@@H](Cc2ccc(O)cc2)C(=O)N(C)[C@@H](C)C(=O)N[C@H]2CCNC(=O)CC[C@H](NC(=O)[C@H](Cc3cnc[nH]3)NC(=O)[C@@H]3CCCN3C2=O)C(=O)N2C[C@H](O)C[C@H]2C(=O)N[C@@H](Cc2c[nH]c3ccccc23)C(=O)N[C@@H](CO)C(=O)N[C@@H](Cc2c[nH]c3ccccc23)C(=O)N1C [Example 1504] ({CH2CO}-Y[NMeA][Dab]PHE[Hyp]WSW[NMeNle][NMeNle]ACG-NH2; lactam 3-6; thioether N-14) | 10 to 99 nM |
| CCCC[C@H]1C(=O)N(C)[C@@H](CCCC)C(=O)N[C@@H](C)C(=O)N[C@H](C(=O)NCC(N)=O)CSCC(=O)N[C@@H](Cc2ccc(O)cc2)C(=O)N(C)[C@@H](C)C(=O)N[C@H]2CCC(=O)NCCC[C@H](NC(=O)[C@H](Cc3cnc[nH]3)NC(=O)[C@@H]3CCCN3C2=O)C(=O)N2C[C@H](O)C[C@H]2C(=O)N[C@@H](Cc2c[nH]c3ccccc23)C(=O)N[C@@H](CO)C(=O)N[C@@H](Cc2c[nH]c3ccccc23)C(=O)N1C [Example 1505] ({CH2CO}-Y[NMeA]EPH[Orn][Hyp]WSW[NMeNle][NMeNle]ACG-NH2; lactam 3-6; thioether N-14) | 10 to 99 nM |
| CCCC[C@H]1C(=O)N(C)[C@@H](CCCC)C(=O)N[C@@H](C)C(=O)N[C@H](C(=O)NCC(N)=O)CSCC(=O)N[C@@H](Cc2ccc(O)cc2)C(=O)N(C)[C@@H](C)C(=O)N[C@H]2CCCNC(=O)CC[C@H](NC(=O)[C@H](Cc3cnc[nH]3)NC(=O)[C@@H]3CCCN3C2=O)C(=O)N2C[C@H](O)C[C@H]2C(=O)N[C@@H](Cc2c[nH]c3ccccc23)C(=O)N[C@@H](CO)C(=O)N[C@@H](Cc2c[nH]c3ccccc23)C(=O)N1C [Example 1506] ({CH2CO}-Y[NMeA][Orn]PHE[Hyp]WSW[NMeNle][NMeNle]ACG-NH2; lactam 3-6; thioether N-14) | 10 to 99 nM |
| CCCC[C@H]1C(=O)N(C)[C@@H](CCCC)C(=O)N[C@@H](C)C(=O)N[C@H](C(=O)NCC(N)=O)CSCC(=O)N[C@@H](Cc2ccc(O)cc2)C(=O)N(C)[C@@H](C)C(=O)N[C@H]2CC(=O)NCCCC[C@H](NC(=O)[C@H](Cc3cnc[nH]3)NC(=O)[C@@H]3CCCN3C2=O)C(=O)N2C[C@H](O)C[C@H]2C(=O)N[C@@H](Cc2c[nH]c3ccccc23)C(=O)N[C@@H](CO)C(=O)N[C@@H](Cc2c[nH]c3ccccc23)C(=O)N1C [Example 1507] ({CH2CO}-Y[NMeA]DPHK[Hyp]WSW[NMeNle][NMeNle]ACG-NH2; lactam 3-6; thioether N-14) | 10 to 99 nM |
| CCCC[C@H]1C(=O)N(C)[C@@H](CCCC)C(=O)N[C@@H](C)C(=O)N[C@H](C(=O)NCC(N)=O)CSCC(=O)N[C@@H](Cc2ccc(O)cc2)C(=O)N(C)[C@@H](C)C(=O)N[C@H]2CC(=O)NCCC[C@H](NC(=O)[C@H](Cc3cnc[nH]3)NC(=O)[C@@H]3CCCN3C2=O)C(=O)N2C[C@H](O)C[C@H]2C(=O)N[C@@H](Cc2c[nH]c3ccccc23)C(=O)N[C@@H](CO)C(=O)N[C@@H](Cc2c[nH]c3ccccc23)C(=O)N1C [Example 1508] ({CH2CO}-Y[NMeA]DPH[Orn][Hyp]WSW[NMeNle][NMeNle]ACG-NH2; lactam 3-6; thioether N-14) | 10 to 99 nM |
| CCCC[C@H]1C(=O)N(C)[C@@H](CCCC)C(=O)N[C@H]2CCC(=O)NCCCC[C@H](NC(=O)[C@H](Cc3c[nH]c4ccccc34)NC(=O)CN(C)C(=O)[C@H](CC(C)C)NC(=O)[C@H](Cc3c[nH]cn3)NC(=O)[C@@H]3CCCN3C(=O)[C@H](CC(N)=O)NC(=O)[C@H](C)N(C)C(=O)[C@H](Cc3ccccc3)NC(=O)CSC[C@@H](C(=O)NCC(N)=O)NC2=O)C(=O)N[C@@H](Cc2c[nH]c3ccccc23)C(=O)N1C [Example 5001] ({CH2CO}-F[NMeA]NPHL[Sar]WKW[NMeNle][NMeNle]ECG-NH2; lactam 9-13; thioether N-14) | 3 to 9.9 nM |
